Source: US20260263424A1, “Formulations of 2-Arylbenzimidazole Compounds” (Tranquis Therapeutics, Inc., priority 2022, published 2026)
Where two headings read alike, the source gives them in different places.

Assays:
[1] = cited from earlier work
[2] = system: Ppargc1α (PGC-1α) expression; details: Zhang et al., Diabetes 62:1297-1307 (2013); cited from earlier work
[3] = system: murine models of neurodegenerative diseases, including Parkinson's disease, Alzheimer's disease, and amyotrophic lateral sclerosis (ALS); details: administered orally at 25 mg/kg; cited from earlier work
[4] = WO 2021/262617; cited from earlier work
[5] = Multiple dose phase 1 trial, plasma pharmacokinetics of compound 1 SDD formulation QD for 7 days; details: for AR AUC (accumulation ratio based on AUC(0-tau)) / AR Cmax (accumulation ratio): Day 7, plasma
[6] = Single ascending dose (SAD) phase 1 trial, plasma pharmacokinetics of MC, SDD and HME formulations; details: for Frel Cmax/D (relative bioavailability, geometric mean): dose normalized comparison to Regimen C: 540 mg compound 1 MC formulation; for AUC(0-last) (geometric mean): fasted, plasma
[7] = human, in vivo
[8] = male, human, in vivo, 120 mg, 7 days
[9] = Regimen I: 120 mg compound 1 SDD formulation QD, fasted
[10] = Regimen J: 90 mg compound 1 SDD formulation QD, fed
[11] = Regimen K: 300 mg compound 1 SDD formulation QD, fed

## CC(C)(C)c1ccc(-c2nc3ccccc3[nH]2)cc1 [Compound 1, 2-(4-tert-butylphenyl)-1H-benzimidazole]
[1]
  solubility under aqueous conditions: highly insoluble
[2]
  effect on Ppargc1α (PGC-1α) expression: activator
[3]
  disease severity: reduce disease severity
  myeloid-mediated inflammation: suppress myeloid-mediated inflammation
[4]
  treating systemic immune activation: effective
[5]; [9]
  AR AUC (accumulation ratio based on AUC(0-tau)): 1.58
  AR Cmax (accumulation ratio): 1.59
[5]; [10]
  AR AUC (accumulation ratio based on AUC(0-tau)): 1.24
  AR Cmax (accumulation ratio): 1.03
[5]; Regimen J: 90 mg compound 1 SDD formulation, fed, Day 1
  maximum individual AUC(0-tau) as share of the AUC(0-tau) exposure limit: 10.9%
[5]; [11]
  AR AUC (accumulation ratio based on AUC(0-tau)): 1.66
  AR Cmax (accumulation ratio): 1.74
[6]; MC formulation, single doses of 60 and 180 mg compound 1
  dose proportionality of Cmax, AUC(0-24) and AUC(0-inf): slightly sub-proportionally
[6]; Regimen D 180 mg compound 1 SDD formulation
  Frel Cmax/D (relative bioavailability, geometric mean): 218%
[6]; Regimen D: single oral 180 mg compound 1 SDD formulation
  AUC(0-last) (geometric mean): 611 ng·h/mL
[6]; Regimen E 180 mg compound 1 HME formulation, comparison to Regimen D 180 mg compound 1 SDD formulation
  Frel Cmax (relative bioavailability, geometric mean): 56.6%
[6]; Regimen E 180 mg compound 1 HME formulation
  Frel Cmax/D (relative bioavailability, geometric mean): 124%
[6]; Regimen E: single oral 180 mg compound 1 HME formulation
  AUC(0-last) (geometric mean): 360 ng·h/mL

## CC(C)(C)c1ccc(-c2nc3cc(O)ccc3[nH]2)cc1 [Compound 2, 2-(4-(tert-butyl)phenyl)-1H-benzo[d]imidazol-5-ol]
[7]; 180 mg
  dose proportionality of Cmax, AUC(0-24) and AUC(0-inf): proportionally
[7]; male, 180 mg
  Frel Cmax (relative bioavailability, geometric mean): 64.9%
[7]; male, po, 180 mg
  T1/2 (geometric mean): 9.17 h
  Tmax (median): 2 h
[7]; male, po, 270 mg
  Cmax (geometric mean): 621 ng/mL
  Tmax (median): 2 h
[8]
  AR AUC (accumulation ratio based on AUC(0-tau)): 1.46
